Measured values as given in PubChem BioAssay AID1259407 (Chemical Carcinogenesis Research Information System (CCRIS), 2018).
Calls of active or inactive are those of the source. How the calls were made is not given here.

System: CCRIS mutagenicity, Ames/micronucleus/aberration tests
Experiment: CCRIS mutagenicity studies
[1] = Test System: AMES SALMONELLA TYPHIMURIUM, Strain/Indicator: TA100, Metabolic Activation: NONE, Method: STANDARD PLATE

CC1(C)C(=O)N(Cl)C(=O)N1Cl
mutagenic call (End Point: IN VITRO CHROMOSOMAL ABERRATIONS, Test System: CHINESE HAMSTER OVARY CELLS, Metabolic Activation: NONE): inactive; negative
mutagenic call (End Point: IN VITRO CHROMOSOMAL ABERRATIONS, Test System: CHINESE HAMSTER OVARY CELLS, Metabolic Activation: RAT, LIVER, S-9, AROCLOR 1254): inactive; negative
mutagenic call (Test System: AMES SALMONELLA TYPHIMURIUM, Strain/Indicator: TA98, Metabolic Activation: HAMSTER, LIVER, S-9, AROCLOR 1254, Method: PREINCUBATION): inactive; negative
mutagenic call (Test System: AMES SALMONELLA TYPHIMURIUM, Strain/Indicator: TA98, Metabolic Activation: NONE, Method: PREINCUBATION): inactive; negative
mutagenic call (Test System: AMES SALMONELLA TYPHIMURIUM, Strain/Indicator: TA98, Metabolic Activation: RAT, LIVER, S-9, AROCLOR 1254, Method: PREINCUBATION): inactive; negative
mutagenic call (Test System: AMES SALMONELLA TYPHIMURIUM, Strain/Indicator: TA100, Metabolic Activation: HAMSTER, LIVER, S-9, AROCLOR 1254, Method: PREINCUBATION): inactive; negative
mutagenic call (Test System: AMES SALMONELLA TYPHIMURIUM, Strain/Indicator: TA100, Metabolic Activation: NONE, Method: PREINCUBATION): inactive; negative
mutagenic call (Test System: AMES SALMONELLA TYPHIMURIUM, Strain/Indicator: TA100, Metabolic Activation: RAT, LIVER, S-9, AROCLOR 1254, Method: PREINCUBATION): inactive; negative
mutagenic call (Test System: AMES SALMONELLA TYPHIMURIUM, Strain/Indicator: TA1535, Metabolic Activation: HAMSTER, LIVER, S-9, AROCLOR 1254, Method: PREINCUBATION): inactive; negative
mutagenic call (Test System: AMES SALMONELLA TYPHIMURIUM, Strain/Indicator: TA1535, Metabolic Activation: NONE, Method: PREINCUBATION): inactive; negative
mutagenic call (Test System: AMES SALMONELLA TYPHIMURIUM, Strain/Indicator: TA1535, Metabolic Activation: RAT, LIVER, S-9, AROCLOR 1254, Method: PREINCUBATION): inactive; negative
mutagenic call (Test System: AMES SALMONELLA TYPHIMURIUM, Strain/Indicator: TA1537, Metabolic Activation: HAMSTER, LIVER, S-9, AROCLOR 1254, Method: PREINCUBATION): inactive; negative
mutagenic call (Test System: AMES SALMONELLA TYPHIMURIUM, Strain/Indicator: TA1537, Metabolic Activation: NONE, Method: PREINCUBATION): inactive; negative
mutagenic call (Test System: AMES SALMONELLA TYPHIMURIUM, Strain/Indicator: TA1537, Metabolic Activation: RAT, LIVER, S-9, AROCLOR 1254, Method: PREINCUBATION): inactive; negative

O=C(Nc1ccccc1)Nc1snc2ccccc12
mutagenic call [1]: inactive; negative
mutagenic call (Test System: AMES SALMONELLA TYPHIMURIUM, Strain/Indicator: TA100, Metabolic Activation: S-9, Method: STANDARD PLATE): inactive; negative
mutagenic call (Test System: AMES SALMONELLA TYPHIMURIUM, Strain/Indicator: TA1537, Metabolic Activation: NONE, Method: STANDARD PLATE): inactive; negative
mutagenic call (Test System: AMES SALMONELLA TYPHIMURIUM, Strain/Indicator: TA1537, Metabolic Activation: S-9, Method: STANDARD PLATE): inactive; negative

CC(=O)N(O)c1ccc(Cl)cc1
mutagenic call (Test System: AMES SALMONELLA TYPHIMURIUM, Strain/Indicator: TA98, Metabolic Activation: NONE, Method: STANDARD PLATE): inactive; negative
mutagenic call (Test System: AMES SALMONELLA TYPHIMURIUM, Strain/Indicator: TA98, Metabolic Activation: RAT, LIVER, S-9, AROCLOR 1254, Method: STANDARD PLATE): inactive; negative
mutagenic call [1]: inactive; negative
mutagenic call (Test System: AMES SALMONELLA TYPHIMURIUM, Strain/Indicator: TA100, Metabolic Activation: RAT, LIVER, S-9, AROCLOR 1254, Method: STANDARD PLATE): inactive; negative

C[C@]12CC[C@@H]3c4cc(O)c(O)cc4CC[C@H]3[C@@H]1CCC2=O
mutagenic call (Test System: Ames Salmonella typhimurium, Strain/Indicator: TA98, Metabolic Activation: None, Method: Standard plate): inactive; negative
mutagenic call (Test System: Ames Salmonella typhimurium, Strain/Indicator: TA98, Metabolic Activation: Rat, liver, S-9, Method: Standard plate): inactive; negative
mutagenic call (Test System: Ames Salmonella typhimurium, Strain/Indicator: TA100, Metabolic Activation: None, Method: Standard plate): inactive; negative
mutagenic call (Test System: Ames Salmonella typhimurium, Strain/Indicator: TA100, Metabolic Activation: Rat, liver, S-9, Method: Standard plate): inactive; negative

O/N=C/c1ccccn1
mutagenic call (Test System: AMES SALMONELLA TYPHIMURIUM, Strain/Indicator: TA102, Metabolic Activation: RAT, LIVER, S-9, PHENOBARBITAL AND 5,6-BENZOFLAVONE, Method: STANDARD PLATE): inactive; negative
mutagenic call (Test System: AMES SALMONELLA TYPHIMURIUM, Strain/Indicator: TA2638, Metabolic Activation: RAT, LIVER, S-9, PHENOBARBITAL AND 5,6-BENZOFLAVONE, Method: STANDARD PLATE): inactive; negative
mutagenic call (Test System: E. COLI, Strain/Indicator: WP2 (PKM101), Metabolic Activation: RAT, LIVER, S-9, PHENOBARBITAL AND 5,6-BENZOFLAVONE, Method: STANDARD PLATE): inactive; negative
mutagenic call (Test System: E. COLI, Strain/Indicator: WP2 UVRA (PKM101), Metabolic Activation: RAT, LIVER, S-9, PHENOBARBITAL AND 5,6-BENZOFLAVONE, Method: STANDARD PLATE): active; positive
